Assay results published in US20230257372A1 (CHONG KUN DANG PHARMACEUTICAL CORP., priority 2020, published 2023).

Tests used:
human recombinant HDAC1 = molecular target: T1, human recombinant HDAC1 (Homo sapiens, UniProt Q13547); assay: HDAC1 enzyme activity inhibition (HDAC Fluorimetric Drug Discovery Kit); assay type: biochemical; details: human recombinant HDAC1; IC50 calculated with GraphPad Prism; read-out: HDAC1
T1 construct: purchased Enzo Life Science, Inc. BML-SE456
Description: (§1) An experiment was conducted to identify the selectivity of the compound represented by formula I of the present invention to HDAC6 through an experiment on HDAC1 and HDAC6 enzyme activity inhibition.
(§2) A 5-fold dilution of the compound was divided into a 96-well plate, after which […] of the enzyme and 10 μM of the substrate were inserted into each well and subjected to reaction at 30° C. for 60 minutes, such that Fluor de Lys® Developer II (BML-KI176) was inserted thereinto and subjected to reaction for 30 minutes and finished.

human recombinant HDAC6 = molecular target: T2, human recombinant HDAC6 (Homo sapiens, UniProt Q9UBN7); assay: HDAC6 enzyme activity inhibition (HDAC Fluorimetric Drug Discovery Kit); assay type: biochemical; details: for HDAC6 selectivity (fold): HDAC1 IC50 / HDAC6 IC50; for IC50: human recombinant HDAC6, IC50 calculated with GraphPad Prism
T2 construct: purchased Calbiochem Inc. 382180
T2 sequence (Q9UBN7 1-1215): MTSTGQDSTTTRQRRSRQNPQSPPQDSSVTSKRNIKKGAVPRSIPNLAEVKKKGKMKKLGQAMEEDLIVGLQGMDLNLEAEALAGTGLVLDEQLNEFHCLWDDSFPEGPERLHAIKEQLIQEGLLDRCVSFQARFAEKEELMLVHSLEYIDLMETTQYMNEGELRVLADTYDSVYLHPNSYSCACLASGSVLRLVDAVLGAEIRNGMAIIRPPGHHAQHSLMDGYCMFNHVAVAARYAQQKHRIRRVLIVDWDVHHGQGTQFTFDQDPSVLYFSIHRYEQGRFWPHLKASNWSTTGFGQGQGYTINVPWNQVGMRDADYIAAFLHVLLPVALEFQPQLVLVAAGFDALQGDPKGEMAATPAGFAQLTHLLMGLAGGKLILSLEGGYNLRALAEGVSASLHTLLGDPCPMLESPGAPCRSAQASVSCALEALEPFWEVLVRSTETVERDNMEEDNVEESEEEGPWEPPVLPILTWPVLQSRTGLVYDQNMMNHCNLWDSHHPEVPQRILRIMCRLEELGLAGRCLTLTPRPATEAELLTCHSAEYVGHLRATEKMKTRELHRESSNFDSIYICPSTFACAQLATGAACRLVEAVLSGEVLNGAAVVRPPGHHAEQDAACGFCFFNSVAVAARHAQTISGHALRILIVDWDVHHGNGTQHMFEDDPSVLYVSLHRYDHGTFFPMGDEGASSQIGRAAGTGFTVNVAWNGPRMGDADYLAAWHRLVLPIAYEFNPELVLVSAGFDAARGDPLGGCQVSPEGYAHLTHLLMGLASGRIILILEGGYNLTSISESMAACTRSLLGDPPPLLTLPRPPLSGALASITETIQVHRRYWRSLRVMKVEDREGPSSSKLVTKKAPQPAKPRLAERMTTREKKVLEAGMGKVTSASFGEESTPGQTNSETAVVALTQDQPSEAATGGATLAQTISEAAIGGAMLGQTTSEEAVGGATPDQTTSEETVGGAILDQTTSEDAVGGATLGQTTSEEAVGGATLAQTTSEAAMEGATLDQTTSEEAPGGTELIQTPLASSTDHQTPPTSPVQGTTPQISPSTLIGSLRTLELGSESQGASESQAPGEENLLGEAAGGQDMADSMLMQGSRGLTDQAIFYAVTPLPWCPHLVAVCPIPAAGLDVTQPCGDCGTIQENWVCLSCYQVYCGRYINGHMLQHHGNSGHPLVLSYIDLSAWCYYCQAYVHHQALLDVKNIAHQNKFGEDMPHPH
Description: as §1, §2

T1 sequence (Q13547 whole entry): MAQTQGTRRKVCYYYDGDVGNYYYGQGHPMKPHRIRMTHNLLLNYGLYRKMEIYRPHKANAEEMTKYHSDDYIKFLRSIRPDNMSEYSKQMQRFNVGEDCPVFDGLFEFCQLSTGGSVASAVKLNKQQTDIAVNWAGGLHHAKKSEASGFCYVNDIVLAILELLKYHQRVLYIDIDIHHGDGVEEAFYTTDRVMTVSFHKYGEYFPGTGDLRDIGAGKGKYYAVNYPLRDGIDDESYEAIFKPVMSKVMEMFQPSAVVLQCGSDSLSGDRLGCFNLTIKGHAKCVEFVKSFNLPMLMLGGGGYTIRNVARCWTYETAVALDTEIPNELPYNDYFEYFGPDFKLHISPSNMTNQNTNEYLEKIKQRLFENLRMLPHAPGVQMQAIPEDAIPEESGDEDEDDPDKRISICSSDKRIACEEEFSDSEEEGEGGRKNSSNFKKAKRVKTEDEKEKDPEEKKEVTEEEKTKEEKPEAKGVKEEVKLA

| IC50 (human recombinant HDAC1) [nM] | HDAC6 selectivity (fold) (human recombinant HDAC6) | IC50 (human recombinant HDAC6) [nM] | Structure (SMILES) |
| --- | --- | --- | --- |
| > 50000 | 1043 | 47.9 | Fc1ccc(-c2cn(Cc3ccc(-c4nnc(C(F)F)o4)cn3)nn2)cc1F [Compound 3737, 2-(difluoromethyl)-5-(6-((4-(3,4-difluorophenyl)-1H-1,2,3-triazol-1-yl)methyl)pyridin-3-yl)-1,3,4-oxadiazole] |
| > 50000 | 782 | 63.9 | O=C(O)c1cccc(-c2cn(Cc3ccc(-c4nnc(C(F)F)o4)cn3)nn2)c1 [Compound 3739] |
| > 50000 | 1754 | 28.5 | CC(C)(C)OC(=O)Nc1cccc(-c2cn(Cc3ccc(-c4nnc(C(F)F)o4)cn3)nn2)c1 [Compound 3741, Tert-butyl (3-(1-((5-(5-(difluoromethyl)-1,3,4-oxadiazol-2-yl)pyridin-2-yl)methyl)-1H-1,2,3-triazol-4-yl)phenyl)carbamate] |
| > 50000 | 412 | 121 | CN(C)c1cccc(-c2cn(Cc3ccc(-c4nnc(C(F)F)o4)cc3F)nn2)c1 [Compound 3774, 3-(1-(4-(5-(difluoromethyl)-1,3,4-oxadiazol-2-yl)-2-fluorobenzyl)-1H-1,2,3-triazol-4-yl)-N,N-dimethylaniline] |
| > 50000 | 844 | 59.2 | CC(C)(C)OC(=O)N1CCC(c2cn(Cc3ccc(-c4nnc(C(F)F)o4)cn3)nn2)CC1 [Compound 3805, tert-butyl 4-(1-((5-(5-(difluoromethyl)-1,3,4-oxadiazol-2-yl)pyridin-2-yl)methyl)-1H-1,2,3-triazol-4-yl)piperidin-1-carboxylate] |
| > 50000 | 134 | 372 | CN1CCC(c2cn(Cc3ccc(-c4nnc(C(F)F)o4)cn3)nn2)CC1 [Compound 3806, 2-(difluoromethyl)-5-(6-((4-(1-methylpiperidin-4-yl)-1H-1,2,3-triazol-1-yl)methyl)pyridin-3-yl)-1,3,4-oxadiazole] |
| > 50000 | 166 | 301 | CCN1CCC(c2cn(Cc3ccc(-c4nnc(C(F)F)o4)cn3)nn2)CC1 [Compound 3807, 2-(difluoromethyl)-5-(6-((4-(1-ethylpiperidin-4-yl)-1H-1,2,3-triazol-1-yl)methyl)pyridin-3-yl)-1,3,4-oxadiazole] |
| > 50000 | 143 | 348 | CC(C)N1CCC(c2cn(Cc3ccc(-c4nnc(C(F)F)o4)cn3)nn2)CC1 [Compound 3808, 2-(difluoromethyl)-5-(6-((4-(1-isopropylpiperidin-4-yl)-1H-1,2,3-triazol-1-yl)methyl)pyridin-3-yl)-1,3,4-oxadiazole] |
| > 50000 | 253 | 198 | FC(F)c1nnc(-c2ccc(Cn3cc(C4CCN(C5COC5)CC4)nn3)nc2)o1 [Compound 3809, 2-(difluoromethyl)-5-(6-((4-(1-(oxetan-3-yl)piperidin-4-yl)-1H-1,2,3-triazol-1-yl)methyl)pyridin-3-yl)-1,3,4-oxadiazole] |
| > 50000 | 178 | 280 | FC(F)c1nnc(-c2ccc(Cn3cc(C4CCN(C5CC6(COC6)C5)CC4)nn3)nc2)o1 [Compound 3810, 2-(6-((4-(1-(2-oxaspiro[3.3]heptan-6-yl)piperidin-4-yl)-1H-1,2,3-triazol-1-yl)methyl)pyridin-3-yl)-5-(difluoromethyl)-1,3,4-oxadiazole] |
| > 50000 | 241 | 207 | CC(=O)N1CCC(c2cn(Cc3ccc(-c4nnc(C(F)F)o4)cn3)nn2)CC1 [Compound 3811, 1-(4-(1-((5-(5-(difluoromethyl)-1,3,4-oxadiazol-2-yl)pyridin-2-yl)methyl)-1H-1,2,3-triazol-4-yl)piperidin-1-yl)ethan-1-one] |
| > 50000 | 446 | 112 | CS(=O)(=O)N1CCC(c2cn(Cc3ccc(-c4nnc(C(F)F)o4)cn3)nn2)CC1 [Compound 3812] |
| > 50000 | 166 | 300 | O=C(CO)N1CCC(c2cn(Cc3ccc(-c4nnc(C(F)F)o4)cn3)nn2)CC1 [Compound 3813, 1-(4-(1-((5-(5-(difluoromethyl)-1,3,4-oxadiazol-2-yl)pyridin-2-yl)methyl)-1H-1,2,3-triazol-4-yl)piperidin-1-yl)-2-hydroxyethan-1-one] |
| > 50000 | 294 | 170 | CC(C)(C)OC(=O)N1CCC(c2cn(Cc3ccc(-c4nnc(C(F)F)o4)cn3)nn2)C1 (stereo not drawn) [Compound 3820, Tert-butyl 3-(1-((5-(5-(difluoromethyl)-1,3,4-oxadiazol-2-yl)pyridin-2-yl)methyl)-1H-1,2,3-triazol-4-yl)pyrrolidin-1-carboxylate] |
| > 50000 | 244 | 205 | FC(F)c1nnc(-c2ccc(Cn3cc(CCc4cn5ccccc5n4)nn3)nc2)o1 [Compound 3822, 2-(difluoromethyl)-5-(6-((4-(2-(imidazo[1,2-a]pyridin-2-yl)ethyl)-1H-1,2,3-triazol-1-yl)methyl)pyridin-3-yl)-1,3,4-oxadiazole] |
| > 50000 | 2439 | 20.5 | CN(C)c1cccc(-c2cn(Cc3ccc(-c4nnc(C(F)F)o4)cn3)nn2)c1 [Compound 3824, 3-(1-((5-(5-(difluoromethyl)-1,3,4-oxadiazol-2-yl)pyridin-2-yl)methyl)-1H-1,2,3-triazol-4-yl)-N,N-dimethylaniline] |
| > 50000 | 1655 | 30.2 | O=C(c1cccc(-c2cn(Cc3ccc(-c4nnc(C(F)F)o4)cn3)nn2)c1)N1CCCC1 [Compound 3829, (3-(1-((5-(5-(difluoromethyl)-1,3,4-oxadiazol-2-yl)pyridin-2-yl)methyl)-1H-1,2,3-triazol-4-yl)phenyl)(pyrrolidin-1-yl)methanone] |
| > 50000 | 219 | 22.8 | CN1CCC(Nc2cccc(-c3cn(Cc4ccc(-c5nnc(C(F)F)o5)cn4)nn3)c2)CC1 [Compound 3830, N-(3-(1-((5-(5-(difluoromethyl)-1,3,4-oxadiazol-2-yl)pyridin-2-yl)methyl)-1H-1,2,3-triazol-4-yl)phenyl)-1-methylpiperidin-4-amine] |
| > 50000 | 343 | 145 | CCCc1cn(Cc2ccc(-c3nnc(C(F)F)o3)cn2)nn1 [Compound 3831, 2-(difluoromethyl)-5-(6-((4-propyl-1H-1,2,3-triazol-l-yl)methyl)pyridin-3-yl)-1,3,4-oxadiazole] |
| > 50000 | 263 | 190 | CCCCc1cn(Cc2ccc(-c3nnc(C(F)F)o3)cn2)nn1 [Compound 3832, 2-(6-((4-butyl-1H-1,2,3-triazol-1-yl)methyl)pyridin-3-yl)-5-(difluoromethyl)-1,3,4-oxadiazole] |
| > 50000 | 117 | 424 | OCCCc1cn(Cc2ccc(-c3nnc(C(F)F)o3)cn2)nn1 [Compound 3833, 3-(1-((5-(5-(difluoromethyl)-1,3,4-oxadiazol-2-yl)pyridin-2-yl)methyl)-1H-1,2,3-triazol-4-yl)propan-1-ol] |
| > 50000 | 217 | 238 | OCCCCc1cn(Cc2ccc(-c3nnc(C(F)F)o3)cn2)nn1 [Compound 3834, 4-(1-((5-(5-(difluoromethyl)-1,3,4-oxadiazol-2-yl)pyridin-2-yl)methyl)-1H-1,2,3-triazol-4-yl)butan-1-ol] |
